# Laboratory results from patent US8147880B2, “Polyacetylenic compounds for stimulating insulin gene exression, production and secretion” (Academia Sinica, priority 2007, dated 2012).
# Assays:
# db/db mice [1] = assay: Blood glucose levels in fasted diabetic db/db mice after intraperitoneal injection; type: in vivo; settings: db/db mice 7-8 weeks old, fasted 12 hours; 25 μg/kg intraperitoneally; at two hours; vs PBS
# Experimental: The db/db mice were purchased from Jackson Laboratory (Bar Harbor, Me., U.S.A.), and then maintained and handled according to the guidelines of Academia Sinica Institutional Animal Care and Utilization Committee (Taiwan).
# Diabetic db/db mice of 7-8 weeks old were fasted for 12 hours (water allowed), and then intraperitoneally injected with phosphate-buffered saline (PBS) or cytopiloyne at 25 μg/kg, blood glucose levels in the mice were monitored at 0, 1, 2, 4, and 6 hours using Elite glucometer.
# db/db mice [2] = assay: Intraperitoneal glucose tolerance test in diabetic db/db mice after oral administration; type: in vivo; settings: db/db mice fasted 12 hours, glucose 0.5 g/kg i.p. half an hour later, vs PBS
# Experimental: The db/db mice were purchased from Jackson Laboratory, and then maintained and handled according to the guidelines of Academia Sinica Institutional Animal Care and Utilization Committee (Taiwan). Glibenclamide was purchased from MP Biomedical Inc.
# Diabetic db/db mice aged 7-8 weeks were fasted for 12 hours (water allowed) and orally administered with PBS, cytopiloyne at 0.5 mg/kg or Glimepiride at 2.5 mg/kg. Half an hour later, the mice were intraperitoneally injected with glucose at 0.5 g/kg body weight. Blood glucose levels were monitored at 0, 0.5, 1, 1.5, 2 and 3 hours using Elite glucometer.
# RIN-m5F cells [3] = assay: Insulin secretion into cell medium (insulin Elisa kit); type: cell-based, rat; settings: 2.5, 10, and 15 μg/mL for 24 hours
# Experimental: RIN-m5F cells, a rat β cell line, were obtained from the American Type Culture Collection (ATCC). Glucose-free RPMI medium was purchased from Life Technology. The cells were grown in a glucose-free RPMI 1640 medium supplemented with 10% FCS, penicillin (100 U/ml), streptomycin (100 μg/ml), 2-mercapoethanol (50 μM), sodium pyruvate (1 mM), and glutamate (292 μg/ml).
# The cells were separately incubated with vehicle, glucose at a high dose (16.7 mM), glucose at a low dose (3.6 mM), and cytopiloyne at 2.5, 10, and 15 μg/mL for 24 hours. Insulin levels in the cell medium were determined using an insulin Elisa kit (Mercodia, Uppsala, Sweden).
# human insulin promoter = assay: Insulin promoter luciferase reporter (pINS-Luc / pRL-TK) in transfected RIN-m5F cells; type: cell-based; settings: 2.5, 10, or 15 μg/ml for 24 hours
# Experimental: The pINS-DCR3 vector containing a human insulin promoter was digested by SphI and BamHI and then cloned into a pcDNAΔCMVlue vector to generate the plasmid pINS-Luc. The plasmid pRL-TK containing a thymidine kinase promoter and a Renilla luciferase reporter gene was purchased from Promega.
# RIN-m5F cells transfected with pINS-Luc and pRL-TK plasmids were incubated with vehicle, high glucose (16.7 mM), or cytopiloyne at 2.5, 10, or 15 μg/ml for 24 hours.
# [4] = tested on: Primary β cells from mice; assay: Insulin levels (intracellular anti-insulin staining, Elisa) in primary β cells; type: cell-based; settings: mouse primary β cells; 2.5, 5, or 10 μg/ml for 24 hours; vs vehicle
# Experimental: (§1) Primary β cells from mice were seeded in 9-cm^2 plates in a glucose-free RPMI 1640 medium. Both mouse primary β cells and RIN-m5F cells were treated with vehicle or cytopiloyne at 2.5, 5, or 10 μg/ml for 24 hours. The treated cells were subsequently subjected to intracellular staining with anti-insulin antibody (H86, Santa Cruz Biotechnology, CA, USA) and FITC-conjugated anti-rabbit antiserum (BD Biosciences, CA, USA) according to the manufacturer's instruction. The insulin levels in the cell media were determined using an insulin Elisa kit.
# RIN-m5F cells [5] = assay: Insulin levels (intracellular anti-insulin staining, Elisa) in RIN-m5F cells; type: cell-based, rat; settings: 2.5, 5, or 10 μg/ml for 24 hours, vs vehicle
# Experimental: as §1
# RIN-m5F cells [6] = assay: Cytopiloyne-induced insulin secretion after pre-treatment with channel modulators / calcium chelator; type: cell-based, rat; settings: then cytopiloyne 5 μg/ml for 10 min
# Experimental: RIN-[…] cells were pre-treated with vehicle, diazoxide (100 μM), EGTA (10 μM), or nimodipine (1 μM) for 30 minutes. They were then incubated with cytopiloyne at 5 μg/ml for 10 min. Insulin levels in the cell medium were determined using an insulin Elisa kit.
compound,measurement,setting,value
CC#CC#CC#CC#CCCC(CO)OC1OC(CO)C(O)C(O)C1O (stereo not drawn) [cytopiloyne],blood glucose levels,db/db mice [1],significantly decreased
same,glucose tolerance,db/db mice [2]; 0.5 mg/kg orally,improved glucose tolerance as effectively as Glimepiride
same,insulin secretion,RIN-m5F cells [3],significantly enhanced insulin secretion
same,insulin transcription,human insulin promoter,stimulated insulin transcription in RIN-m5F cells in a dose-dependent manner
same,insulin levels,[4],elevated insulin levels
same,insulin levels,RIN-m5F cells [5],elevated insulin levels
CC1=NS(=O)(=O)c2cc(Cl)ccc2N1 [diazoxide],effect on cytopiloyne-induced insulin secretion,RIN-m5F cells [6]; pre-treatment 100 μM for 30 minutes,suppressed cytopiloyne-induced insulin secretion
O=C(O)CN(CCOCCOCCN(CC(=O)O)CC(=O)O)CC(=O)O [EGTA],effect on cytopiloyne-mediated insulin secretion,RIN-m5F cells [6]; pre-treatment 10 μM for 30 minutes,suppressed cytopiloyne-mediated insulin secretion
"CCC1=C(C)CN(C(=O)NCCc2ccc(S(=O)(=O)NC(=O)N[C@H]3CC[C@H](C)CC3)cc2)C1=O [Glimepiride, reference compound]",glucose tolerance,db/db mice [2]; 2.5 mg/kg orally,improved glucose tolerance
